{"source": "paper PMC7901654", "about": "“Bioisosteric Discovery of NPA101.3, a Second-Generation RET/VEGFR2 Inhibitor Optimized for Single-Agent Polypharmacology” (Journal of Medicinal Chemistry, 2020)", "assay_type_in_all_cases": "cell-based", "key": {"[1]": {"tested_on": "TT", "experiment": "Cell growth curves, human cells", "conditions": "MTC, RET C634W, read-out: IC50 (95% CI), growth inhibition", "experimental": "(§1) The IC50 dose for all human RET-negative cells was >100.0 nM, confirming compound selectivity (Figure S8 and Table S4).\n(§2) Nthy-ory-3-1 (10000 per well), TPC-1 (10000 per well), MZ-CRC-1 (100000 per well), TT (200000 per well), Lc-2/ad (100000 per well), BCPAP (10000 per well), 8505-C (10000 per well), PC-9 (10000 per well), A549 (10000 per well), CALU-1 (10000 per well), NIH3T3 RET/C634Y (10000 per well), and NIH3T3 HRAS/G12V (10000 per well) were seeded in six-well tissue culture plates. Cells were kept in 2% (TPC-1), 5% (Nthy-ori-3-1), or 10% (BCPAP, 8505-C, CALU-1, A549, PC-9, TT, MZ-CRC-1, and Lc-2/ad) fetal calf serum or in 2% (NIH3T3 RET/C634Y and HRAS/G12V) calf serum. Ba/F3 cells (200000 per well in 2 mL) were seeded in six-well tissue culture plates and kept in 10% fetal calf serum. The day after plating, different concentrations of the drug or vehicle were added to the medium and changed every 2–3 days. Cells were counted every day (Ba/F3), every 2 days (fibroblasts), or every 2–3 days (human cell lines). To compare cell growth, we performed an unpaired Student’s t test using the Instat software program (Graphpad Software Inc.). All P values were two-sided, and differences were considered to be statistically significant at P < 0.02. IC50 doses were calculated through a curve fitting analysis from last day of growth curves using the PRISM software program (Graphpad Software Inc.).\n(§3) Supplementary Table S4: NPA101.3 growth inhibitory effect on human cells.\n(§4) *MTC (medullary thyoroid carcinoma); PTC (papillary thyroid carcinoma); ATC\n(§5) (anaplastic thyroid carcinoma); LADC (lung adenocarcinoma)"}, "[2]": {"tested_on": "Lc-2/ad", "experiment": "Cell growth curves, human cells", "conditions": "LADC, CCDC6-RET, read-out: IC50 (95% CI), growth inhibition", "experimental": "as §1, §2, §3, §4, §5"}, "[3]": {"tested_on": "MZ-CRC-1", "experiment": "Cell growth curves, human cells", "conditions": "MZ-CRC-1, MTC, RET M918T, read-out: IC50 (95% CI), growth inhibition", "experimental": "as §1, §2, §3, §4, §5"}, "[4]": {"tested_on": "CCDC6-RET, NCOA4-RET, and FGFR1OP-RET", "experiment": "RET phosphorylation Western blot in NIH3T3 cells, rearranged RET", "conditions": "2 h", "experimental": "Fibroblasts transfected with RET/C634R were treated with increasing doses of NPA101.3, ranging from 0.1 to 10.0 nM. RET autophosphorylation was assessed by Western blotting using two different antibodies that can recognize phosphorylated Y905, located in the RET kinase activation loop, or Y1062, a multidocking site involved in RET downstream signaling.[41]\nFigure 4 NPA101.3-mediated inhibition of phosphorylation and signaling of oncogenic RET mutants and VEGFR2 in intact cells. Serum-starved RAT1 cells exogenously expressing the (A and B) indicated RET point mutants or (C) NIH3T3 cells exogenously expressing the indicated RET rearranged mutants were treated for 2 h with the indicated concentrations of the compound. Total cell lysates (50 μg) were subjected to immunoblotting with anti-phospho-Y1062 (αp1062) and anti-phospho-Y905 (αp905) RET antibodies. The blots were normalized using the anti-RET (αRET) antibody. (D) HEK293 cells were transiently transfected with human VEGFR2; 36 h after transfection, cells were serum starved for 12 h. The indicated doses of the compound or vehicle (NT) were added for 2 h, and then VEGFA (100 ng/mL) stimulation was applied for 15 min. […]\nProtein lysates were prepared according to standard procedures. […] Immune complexes were detected with the enhanced chemiluminescence kit (Amersham Pharmacia Biotech, Little Chalfont, U.K.). […]"}}}
{"smiles": "CC(C)(C)c1cc(NC(=O)Cc2ccc(-n3cnc4cc(-c5ccc(S(C)(=O)=O)cc5)ccc43)cc2)no1", "note": "[NPA101.3]", "values": [{"measurement": "IC50", "setting": "[1]", "result": 2.19, "unit": "nM"}, {"measurement": "IC50", "setting": "[2]", "result": 3.6, "unit": "nM"}, {"measurement": "IC50", "setting": "[3]", "result": 2.21, "unit": "nM"}, {"measurement": "phosphorylation of rearranged RET oncoproteins", "setting": "[4]", "result": "highly sensitive"}]}
